Here are results for 40 compounds from ChEMBL document CHEMBL3039007, “Structure-based identification of OATP1B1/3 inhibitors” (Mol Pharmacol, 2013).

SMILES strings stand for the structures.

Data set [1] deals with T1, Solute carrier organic anion transporter family member 1B3 (Homo sapiens, UniProt Q9NPD5).
T1 sequence (Q9NPD5 whole entry): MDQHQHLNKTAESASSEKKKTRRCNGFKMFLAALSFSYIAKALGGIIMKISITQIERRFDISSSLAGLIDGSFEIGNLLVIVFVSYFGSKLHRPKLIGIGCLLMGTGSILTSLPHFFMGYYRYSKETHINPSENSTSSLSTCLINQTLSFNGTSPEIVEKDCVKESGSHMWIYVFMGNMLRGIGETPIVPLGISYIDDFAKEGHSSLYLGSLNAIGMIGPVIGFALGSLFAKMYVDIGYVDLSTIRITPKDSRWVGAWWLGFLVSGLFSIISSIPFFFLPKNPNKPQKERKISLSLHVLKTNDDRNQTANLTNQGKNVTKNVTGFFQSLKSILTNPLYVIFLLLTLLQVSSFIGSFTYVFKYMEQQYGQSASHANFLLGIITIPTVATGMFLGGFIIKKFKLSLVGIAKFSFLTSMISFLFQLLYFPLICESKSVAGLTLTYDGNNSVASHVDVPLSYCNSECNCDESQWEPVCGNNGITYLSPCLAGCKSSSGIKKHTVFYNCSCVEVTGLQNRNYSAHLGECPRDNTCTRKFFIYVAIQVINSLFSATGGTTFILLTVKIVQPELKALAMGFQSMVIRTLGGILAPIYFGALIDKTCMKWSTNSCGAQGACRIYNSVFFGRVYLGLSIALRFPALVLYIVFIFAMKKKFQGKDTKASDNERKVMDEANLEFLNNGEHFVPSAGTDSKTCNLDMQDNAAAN
The note with it: chinese hamster, cho, 10 µM.

Data set [2] deals with T2, Solute carrier organic anion transporter family member 1B1 (Homo sapiens, UniProt Q9Y6L6).
T2 sequence (Q9Y6L6 whole entry): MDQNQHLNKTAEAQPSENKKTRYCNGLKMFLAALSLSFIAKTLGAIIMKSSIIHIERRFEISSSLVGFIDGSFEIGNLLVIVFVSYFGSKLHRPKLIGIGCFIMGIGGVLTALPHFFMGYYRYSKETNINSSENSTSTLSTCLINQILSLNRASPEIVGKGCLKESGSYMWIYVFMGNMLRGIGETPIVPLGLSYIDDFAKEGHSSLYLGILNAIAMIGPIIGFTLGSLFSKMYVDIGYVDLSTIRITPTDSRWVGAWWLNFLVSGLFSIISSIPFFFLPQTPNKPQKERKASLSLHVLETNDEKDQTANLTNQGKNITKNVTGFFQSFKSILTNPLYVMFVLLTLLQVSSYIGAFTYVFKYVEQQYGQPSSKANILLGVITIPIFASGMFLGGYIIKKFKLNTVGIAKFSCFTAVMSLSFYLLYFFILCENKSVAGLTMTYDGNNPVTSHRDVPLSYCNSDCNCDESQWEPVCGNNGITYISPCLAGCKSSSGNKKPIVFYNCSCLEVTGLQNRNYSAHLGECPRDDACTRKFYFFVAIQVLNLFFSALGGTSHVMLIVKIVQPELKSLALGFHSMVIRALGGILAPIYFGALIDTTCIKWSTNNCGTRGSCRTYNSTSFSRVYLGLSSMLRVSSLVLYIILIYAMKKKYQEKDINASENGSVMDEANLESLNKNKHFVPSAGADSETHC
The note with it: chinese hamster, cho, 10 µM.

The residual activity is the signal under treatment as a percentage of the control signal. As for `COc1cc2c(cc1OC)[C@@H]1Cc3ccc(OC)c(OC)c3CN1CC2` [TETRAHYDROPALMATINE], the residual activity was 106.9% in data set [1] and 186.7% in data set [2].

Take `COc1ccc2c(c1)OC[C@@H](Cc1ccc(OC)c(OC)c1)[C@H]2O` [TETRAHYDROSAPPANONE A TRIMETHYL ETHER]: the residual activity amounted to 134.3% in data set [1] and 93.05% in data set [2].

`O=C1C(O)=C(O)C(=O)C(O)=C1O` [TETROQUINONE]: the residual activity in data set [1] is recorded as 83.15%; in data set [2] it was 121.2%.

As for `O=C1CCC(N2C(=O)c3ccccc3C2=O)C(=O)N1` (stereo not given) [THALIDOMIDE], the residual activity in data set [1] is 101%; in data set [2], 82.94%.

`O=c1c(O)cccc2c([C@H]3Oc4cc(O)cc(O)c4C[C@H]3O)cc(O)c(O)c12` [THEAFLAVANIN]: the residual activity in data set [1] amounted to 85.59%; in data set [2] it was 60%.

`O=C(O[C@@H]1Cc2c(O)cc(O)cc2O[C@@H]1c1cc(O)c(=O)c2c(O)c(O)cc([C@H]3Oc4cc(O)cc(O)c4C[C@H]3O)c2c1)c1cc(O)c(O)c(O)c1` [THEAFLAVIN MONOGALLATES]: the figures for the residual activity in data set [1] and in data set [2] were 103.8% and 89.76%, respectively.

For the compound `O=c1c(O)cc([C@H]2Oc3cc(O)cc(O)c3C[C@H]2O)cc2c([C@H]3Oc4cc(O)cc(O)c4C[C@H]3O)cc(O)c(O)c12` [THEAFLAVIN], the residual activity in data set [1] amounted to 75.27%; in data set [2], 53%.

With `CCNC(=O)CC[C@H](N)C(=O)O` [THEANINE], the residual activity is given as 82.21% in data set [1] and 120.6% in data set [2].

Turning to `O=C(O[C@@H]1Cc2c(O)cc(O)cc2O[C@@H]1c1cc(O)c(O)c(O)c1-c1c([C@H]2Oc3cc(O)cc(O)c3C[C@H]2OC(=O)c2cc(O)c(O)c(O)c2)cc(O)c(O)c1O)c1cc(O)c(O)c(O)c1` [THEASINENSIN A], the residual activity in data set [1] came out at 94.99%; in data set [2], 61.1%.

Turning to `Cn1c(=O)c2[nH]cnc2n(C)c1=O.O` [THEOPHYLLINE], the residual activity worked out at 72.46% in data set [1] and 90.11% in data set [2].

In the case of `c1ccc2[nH]c(-c3cscn3)nc2c1` [THIABENDAZOLE], the residual activity in data set [1] was found to be 94.36%; in data set [2] it was 76.75%.

On to `CS(=O)(=O)c1ccc([C@@H](O)[C@@H](CO)NC(=O)C(Cl)Cl)cc1` [THIAMPHENICOL], for which the residual activity in data set [1] came out at 103.5%; in data set [2], 102.1%.

As to `C=CCC1(C(C)CCC)C(=O)N=C([S-])NC1=O.[Na+]` (stereo not given) [THIAMYLAL SODIUM], the residual activity in data set [1] was 103.8%; in data set [2] it was 84.73%.

`CCCC(C)C1(CC)C(=O)[N-]C(=S)NC1=O.[Na+]` (stereo not given) [THIOPENTAL SODIUM]: the residual activity in data set [1] was 84.51%; in data set [2] it was 73.02%.

On to `COC(=O)NC(=S)Nc1ccccc1NC(=S)NC(=O)OC` [THIOPHANATE METHYL], for which the residual activity is listed as 92.95% in data set [1] and 119% in data set [2].

With `S=P(N1CC1)(N1CC1)N1CC1` [THIOTEPA], the residual activity is 70.43% in data set [1] and 67.53% in data set [2].

With `CN1CCN(CC/C=C2/c3ccccc3Sc3ccc(S(=O)(=O)N(C)C)cc32)CC1` [THIOTHIXENE], the values for the residual activity in data set [1] and in data set [2] were 115.8% and 72.97%, respectively.

On to `O=c1cc[nH]c(=S)[nH]1` [THIOURACIL], for which the residual activity was 77.62% in data set [1] and 95.34% in data set [2].

`CN(C)C(=S)SSC(=S)N(C)C` [THIRAM]: the residual activity was 99.01% in data set [1] and 104.4% in data set [2].

As to `COc1ccc(CN(CCN(C)C)c2ncccn2)cc1.Cl` [THONZYLAMINE HYDROCHLORIDE], the residual activity in data set [1] worked out at 91.98%; in data set [2], 88.59%.

Turning to `CC1=CC(=O)C(C(C)C)=CC1=O` [THYMOQUINONE], the residual activity in data set [1] is recorded as 98.24%; in data set [2], 126.4%.

As for `CCN(CC)CCNC(=O)c1cc(S(C)(=O)=O)ccc1OC.Cl` [TIAPRIDE HYDROCHLORIDE], the residual activity in data set [1] came out at 94.93%; in data set [2], 106.2%.

With `C[C@@H]1CC[C@@]2(OC1)O[C@H]1C[C@H]3[C@@H]4CC[C@H]5C[C@@H](O)CC[C@]5(C)[C@H]4CC[C@]3(C)[C@H]1[C@@H]2C` [TIGOGENIN], the residual activity is reported as 106.8% in data set [1] and 97% in data set [2].

`CNC(=N)NCCC[C@H](N)C(=O)O` [TILARGININE]: the residual activity in data set [1] amounted to 97.33%; in data set [2] it was 94.97%.

Take `CC(C)(C)NC[C@H](O)COc1nsnc1N1CCOCC1.O=C(O)/C=C\C(=O)O` [TIMOLOL MALEATE]: the residual activity turned out to be 102.2% in data set [1] and 113.3% in data set [2].

Turning to `O=c1oc2cc(O)ccc2s1` [TIOXOLONE], the residual activity in data set [1] came to 76.34%; in data set [2] it was 67.3%.

Turning to `NC[C@H]1O[C@H](O[C@H]2[C@H](O)[C@@H](O[C@H]3O[C@H](CO)[C@@H](O)[C@H](N)[C@H]3O)[C@H](N)C[C@@H]2N)[C@H](N)C[C@@H]1O` [TOBRAMYCIN], the residual activity in data set [1] turned out to be 105.2%; in data set [2], 197.1%.

As for `CCOC(=O)NNc1nncc2ccccc12.Cl` [TODRALAZINE HYDROCHLORIDE], the residual activity in data set [1] amounted to 106.5%; in data set [2] it was 100.5%.

Regarding `Cl.c1ccc(CC2=NCCN2)cc1` [TOLAZOLINE HYDROCHLORIDE], the residual activity was 98.49% in data set [1] and 74.2% in data set [2].

Take `CCCCNC(=O)NS(=O)(=O)c1ccc(C)cc1` [TOLBUTAMIDE]: the residual activity in data set [1] was 99.86%; in data set [2], 125.3%.

As to `Cc1c(Cl)cccc1Nc1ccccc1C(=O)O` [TOLFENAMIC ACID], the residual activity in data set [1] is reported as 77.01%; in data set [2], 95.07%.

For `Cc1ccc(C(=O)c2ccc(CC(=O)[O-])n2C)cc1.[Na+]` [TOLMETIN SODIUM], the residual activity in data set [1] is given as 90.31%; in data set [2], 127.1%.

Take `Cc1cccc(N(C)C(=S)Oc2ccc3ccccc3c2)c1` [TOLNAFTATE]: the residual activity in data set [1] was found to be 119%; in data set [2], 126.3%.

In the case of `Cc1ccc(C(=O)C(C)CN2CCCCC2)cc1.Cl` (stereo not given) [TOLPERISONE HYDROCHLORIDE], the results for the residual activity in data set [1] and in data set [2] were 112.7% and 96.3%, respectively.

In the case of `C[C@H]1CC[C@]2(NC1)O[C@H]1C[C@H]3[C@@H]4CC[C@H]5C[C@@H](O[C@@H]6O[C@H](CO)[C@H](O[C@@H]7O[C@H](CO)[C@@H](O)[C@H](O[C@@H]8OC[C@@H](O)[C@H](O)[C@H]8O)[C@H]7O[C@@H]7O[C@H](CO)[C@@H](O)[C@H](O)[C@H]7O)[C@H](O)[C@H]6O)CC[C@]5(C)[C@H]4CC[C@]3(C)[C@H]1[C@@H]2C` [TOMATINE], the values for the residual activity in data set [1] and in data set [2] were 100.3% and 96.72%, respectively.

Regarding `CC1(C)O[C@@H]2[C@@H](CO[C@@]3(COS(N)(=O)=O)OC(C)(C)O[C@@H]23)O1` [TOPIRAMATE], the residual activity in data set [1] stood at 106.5%; in data set [2], 93.31%.

Regarding `Cc1cccc(Nc2ccncc2S(=O)(=O)NC(=O)NC(C)C)c1` [TORSEMIDE], the residual activity is 73.29% in data set [1] and 73.9% in data set [2].

For the compound `CC(C)c1c(O)ccc2c1CC[C@H]1[C@@](C)(C=O)CCC[C@]21C` [TOTARAL], the residual activity in data set [1] came to 100.9%; in data set [2], 80.52%.

As for `CC(C)c1c(O)ccc2c1CC[C@H]1C(C)(C)CCC[C@]21C` [TOTAROL], the results for the residual activity in data set [1] and in data set [2] were 131.3% and 159.4%, respectively.

Regarding `CC1(C)C(C(Cl)Cl)C2(Cl)C(Cl)C(Cl)C1(Cl)C2(Cl)Cl` (stereo not given) [TOXAPHENE], the residual activity in data set [1] stood at 109.5%; in data set [2], 111.3%.
